The values below come from article PMC3907359, “Investigation of Acetylcholine Receptor Diversity in a Nematode Parasite Leads to Characterization of Tribendimidine- and Derquantel-Sensitive nAChRs” (PLoS Pathogens, 2014).

Common to all, as to assay type: cell-based
Assay [1] deals with T1, Ode(29-63-8), ACh-nAChR (Oesophagostomum dentatum, UniProt E5KIX9+L7MMZ7+V5J2B2).
T1 construct: full-length cDNAs (UNC-29 497 aa, UNC-63 507 aa, ACR-8 538 aa), pTB-207, cRNA 1:1:1 in Xenopus laevis oocytes; heteropentamer, stoichiometry undetermined; with H. contortus chaperones RIC-3, UNC-50, UNC-74
T1 sequence (V5J2B2 21-497): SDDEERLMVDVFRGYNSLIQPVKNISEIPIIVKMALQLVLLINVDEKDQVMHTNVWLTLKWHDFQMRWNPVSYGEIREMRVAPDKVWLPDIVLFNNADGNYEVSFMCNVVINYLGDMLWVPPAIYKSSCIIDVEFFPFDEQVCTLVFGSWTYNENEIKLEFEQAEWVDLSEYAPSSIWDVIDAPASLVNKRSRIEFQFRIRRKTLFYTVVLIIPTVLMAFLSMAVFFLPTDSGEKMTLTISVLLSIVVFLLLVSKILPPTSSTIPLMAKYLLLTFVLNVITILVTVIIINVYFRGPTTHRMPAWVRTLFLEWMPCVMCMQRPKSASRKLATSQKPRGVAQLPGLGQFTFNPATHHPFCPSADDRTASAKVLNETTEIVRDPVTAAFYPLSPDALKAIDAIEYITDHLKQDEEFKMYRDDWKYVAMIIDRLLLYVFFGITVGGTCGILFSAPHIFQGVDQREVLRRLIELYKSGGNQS
T1 sequence (E5KIX9 22-507): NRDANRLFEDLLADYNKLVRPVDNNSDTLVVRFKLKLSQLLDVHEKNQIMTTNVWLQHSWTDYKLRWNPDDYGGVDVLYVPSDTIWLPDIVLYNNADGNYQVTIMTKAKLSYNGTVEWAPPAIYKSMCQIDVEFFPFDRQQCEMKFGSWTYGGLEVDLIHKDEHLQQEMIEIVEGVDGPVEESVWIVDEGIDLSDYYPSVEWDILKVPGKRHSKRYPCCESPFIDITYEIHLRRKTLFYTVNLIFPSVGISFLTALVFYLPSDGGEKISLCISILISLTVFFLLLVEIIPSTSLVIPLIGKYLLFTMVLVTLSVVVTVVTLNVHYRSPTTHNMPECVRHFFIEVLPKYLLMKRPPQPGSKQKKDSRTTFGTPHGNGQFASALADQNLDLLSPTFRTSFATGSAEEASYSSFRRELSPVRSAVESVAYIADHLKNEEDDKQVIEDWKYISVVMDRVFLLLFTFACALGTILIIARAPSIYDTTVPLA
T1 sequence (L7MMZ7 21-538): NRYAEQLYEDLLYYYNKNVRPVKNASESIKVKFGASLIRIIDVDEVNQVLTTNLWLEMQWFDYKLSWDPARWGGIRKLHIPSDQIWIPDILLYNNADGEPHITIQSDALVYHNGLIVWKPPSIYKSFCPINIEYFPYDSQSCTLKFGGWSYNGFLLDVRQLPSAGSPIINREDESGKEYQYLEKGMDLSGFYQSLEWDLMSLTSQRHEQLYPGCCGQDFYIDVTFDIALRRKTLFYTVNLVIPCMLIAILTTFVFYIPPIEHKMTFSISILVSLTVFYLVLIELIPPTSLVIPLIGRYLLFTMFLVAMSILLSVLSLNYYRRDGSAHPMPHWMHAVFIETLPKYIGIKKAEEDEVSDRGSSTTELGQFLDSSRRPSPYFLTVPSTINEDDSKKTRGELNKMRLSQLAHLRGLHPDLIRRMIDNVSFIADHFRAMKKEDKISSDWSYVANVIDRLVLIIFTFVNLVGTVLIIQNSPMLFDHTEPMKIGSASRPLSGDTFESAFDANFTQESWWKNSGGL
The assay can be described thus: two-electrode voltage clamp, Xenopus oocytes, agonist dose-response. From the text:
two-electrode voltage clamp, Xenopus oocytes, agonist dose-response on Ode(29-63-8), ACh-nAChR

In assay [2] the target is T2, Ode(29-63-8-38), Lev-nAChR (Oesophagostomum dentatum, UniProt E5KIX9+L7MMZ7+V5J2B2+V5J336).
T2 construct: full-length cDNAs (UNC-29 497 aa, UNC-63 507 aa, ACR-8 538 aa, UNC-38 507 aa), pTB-207, cRNA 1:1:1:1 in Xenopus laevis oocytes; heteropentamer, stoichiometry undetermined; with H. contortus chaperones RIC-3, UNC-50, UNC-74
T2 sequence (V5J336 21-507, one chain of several): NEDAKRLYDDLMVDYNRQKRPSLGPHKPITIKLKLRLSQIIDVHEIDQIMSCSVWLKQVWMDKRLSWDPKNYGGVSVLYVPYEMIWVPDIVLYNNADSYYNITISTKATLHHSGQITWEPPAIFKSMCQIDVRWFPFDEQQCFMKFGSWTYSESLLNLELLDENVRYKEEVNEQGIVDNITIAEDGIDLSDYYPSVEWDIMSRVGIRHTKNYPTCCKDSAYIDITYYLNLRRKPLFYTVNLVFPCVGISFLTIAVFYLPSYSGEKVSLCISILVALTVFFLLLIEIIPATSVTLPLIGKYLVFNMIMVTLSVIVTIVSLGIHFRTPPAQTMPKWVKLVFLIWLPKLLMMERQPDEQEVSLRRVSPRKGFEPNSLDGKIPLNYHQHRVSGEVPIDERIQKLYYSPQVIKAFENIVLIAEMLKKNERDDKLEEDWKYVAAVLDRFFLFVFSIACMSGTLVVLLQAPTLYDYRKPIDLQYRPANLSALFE
The description is as above. From the text: two-electrode voltage clamp, Xenopus oocytes, agonist dose-response on Ode(29-63-8-38), Lev-nAChR

Assay [3] addresses T1, Ode(29-63-8), ACh-nAChR. In words: voltage clamp, oocytes; single concentration current. Conditions: agonist, 30 µM.

In general, EC50 refers to the concentration needed to bring the measured effect to its halfway point. A lower EC50 goes with higher potency in that assay. With `CC(=O)OCC[N+](C)(C)C` [acetylcholine], the concentration for a half-maximal effect (EC50) came to 3.5 ± 0.2 µM at Ode(29-63-8), ACh-nAChR [1] and 4.2 ± 0.2 µM in assay [2].

Regarding `C[N+](C)(CCOc1ccccc1)Cc1ccccc1` [bephenium], the “voltage clamp, oocytes; single concentration current” value on Ode(29-63-8), ACh-nAChR [3] was “responses to all the agonists we tested, including bephenium and thenium”.
